Legend:
PD-1/PD-L1 interaction = biological target: T1, PD-1/PD-L1 interaction (Homo sapiens, UniProt Q9NZQ7); test: PD-1/PD-L1 competitive ELISA (Inhibitor Screening Assay Kit); assay type: binding; settings: mean of three independent replicates, read-out: IC50, PD-1/PD-L1 blocking effect
T1 construct: purchased BPS Bioscience #71104 (PD-L1); #71109 (biotinylated PD-1)
Protocol: Competitive ELSIA was performed using a PD–1/PD-L1 or CTLA-4/CD80 Inhibitor Screening Assay Kit, according to the supplier’s instructions. An aliquot of 1 μg/mL recombinant human PD-L1 (BPS Bioscience, #71104) or CTLA-4 (BPS Bioscience, #71149) were coated onto a 96-well plate overnight. Plates were washed with phosphate-buffered saline (PBS) containing 0.1% Tween (PBS-T), blocked for 1 h at room temperature with PBS-T containing 2% (w/v) bovine serum albumen, and washed again. After washing, vehicle or test samples were added, and the reaction continued for 1 h. As a positive control, PD-L1 inhibitor C1 or anti-CTLA-4 neutralizing antibody were used. Biotinylated hPD–1 (BPS Bioscience, #71109) or biotinylated hCD80 (BPS Bioscience, #71114) was added to each well, and plates were incubated for 2 h at room temperature. After three washes with PBS-T, diluted streptavidin-horseradish peroxidase (HRP) was added to each well, and plates were reacted for 1 h while shaking at low speed. After the reaction, plates were washed three times with PBS-T, and HRP substrates A and B were added. Relative chemiluminescence was measured on a SpectraMax L Luminometer (Molecular Devices, San Jose, California, USA) and expressed as the relative binding activity. The results were normalized to the relative percentage of the vehicle control group. Half-maximal inhibitory concentration (IC50) was calculated using Prism “log[inhibitor] vs. normalized response” equation. All results are presented as the mean of three independent biological replicates. * p < 0.05, ** p < 0.01, *** p < 0.001, compared with the vehicle control group.

CTLA-4/CD80 interaction = biological target: T2, CTLA-4/CD80 interaction (Homo sapiens, UniProt P16410); test: CTLA-4/CD80 competitive ELISA (Inhibitor Screening Assay Kit); assay type: binding; settings: mean of three independent replicates, read-out: IC50, CTLA-4/CD80 blocking effect
T2 construct: purchased BPS Bioscience #71149 (CTLA-4); #71114 (biotinylated CD80)
T2 sequence (P16410 37-162 limits assumed): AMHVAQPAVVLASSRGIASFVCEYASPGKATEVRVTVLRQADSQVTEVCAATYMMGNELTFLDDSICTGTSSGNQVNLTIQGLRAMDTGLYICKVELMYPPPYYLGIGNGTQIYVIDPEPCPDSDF
Protocol: Competitive ELSIA was performed using a PD–1/PD-L1 or CTLA-4/CD80 Inhibitor Screening Assay Kit, according to the supplier’s instructions. An aliquot of 1 μg/mL recombinant human PD-L1 (BPS Bioscience, #71104) or CTLA-4 (BPS Bioscience, #71149) were coated onto a 96-well plate overnight. Plates were washed with phosphate-buffered saline (PBS) containing 0.1% Tween (PBS-T), blocked for 1 h at room temperature with PBS-T containing 2% (w/v) bovine serum albumen, and washed again. After washing, vehicle or test samples were added, and the reaction continued for 1 h. As a positive control, PD-L1 inhibitor C1 or anti-CTLA-4 neutralizing antibody were used. Biotinylated hPD–1 (BPS Bioscience, #71109) or biotinylated hCD80 (BPS Bioscience, #71114) was added to each well, and plates were incubated for 2 h at room temperature. After three washes with PBS-T, diluted streptavidin-horseradish peroxidase (HRP) was added to each well, and plates were reacted for 1 h while shaking at low speed. After the reaction, plates were washed three times with PBS-T, and HRP substrates A and B were added. Relative chemiluminescence was measured on a SpectraMax L Luminometer (Molecular Devices, San Jose, California, USA) and expressed as the relative binding activity. The results were normalized to the relative percentage of the vehicle control group. Half-maximal inhibitory concentration (IC50) was calculated using Prism “log[inhibitor] vs. normalized response” equation.

T1 sequence (Q9NZQ7 19-239 limits assumed): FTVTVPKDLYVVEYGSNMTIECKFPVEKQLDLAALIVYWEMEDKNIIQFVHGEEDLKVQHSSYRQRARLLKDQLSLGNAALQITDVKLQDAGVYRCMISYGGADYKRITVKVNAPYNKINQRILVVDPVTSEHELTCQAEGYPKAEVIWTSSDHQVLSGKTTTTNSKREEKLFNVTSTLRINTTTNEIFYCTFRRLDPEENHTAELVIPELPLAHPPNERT

Structure (SMILES): O=C1C[C@@H](c2ccc(O)c(O)c2)Oc2cc(O)cc(O)c21 [Compound 7, eriodictyol]
- IC50 (PD-1/PD-L1 interaction): 0.04 µM

Structure (SMILES): O=C(O)/C=C/c1ccc(O)c(O)c1 [Compound 19, caffeic acid]
- IC50 (CTLA-4/CD80 interaction): 10 µM

Structure (SMILES): O=C1c2c(O)cc(O)cc2OC(c2ccc(O)c(O)c2)C1O (stereo not shown) [Compound 5, taxifolin]
- IC50 (CTLA-4/CD80 interaction): 35.5 µM

Structure (SMILES): O=c1c(O)c(-c2ccc(O)c(O)c2)oc2cc(O)cc(O)c12 [Compound 18, quercetin]
- IC50 (PD-1/PD-L1 interaction): 5.71 µM

Structure (SMILES): O=C1C[C@@H](c2ccc(O)cc2)Oc2cc(O)ccc21 [Compound 13, liquiritigenin]
- IC50 (PD-1/PD-L1 interaction): 11.8 µM

Structure (SMILES): O=c1c(O)c(-c2ccc(O)c(O)c2)oc2cc(O)ccc12 [Compound 9, fisetin]
- IC50 (PD-1/PD-L1 interaction): 0.04 µM

Structure (SMILES): O=C(O)c1ccc(O)c(O)c1 [Compound 2, protocatechuic acid]
- IC50 (CTLA-4/CD80 interaction): 4.51 µM

From article PMC6891444, “Immune Checkpoint PD-1/PD-L1 CTLA-4/CD80 are Blocked by Rhus verniciflua Stokes and its Active Compounds” (Molecules, 2019)
